Data: ChEMBL document CHEMBL1201862, “PubChem BioAssay data set” (2004)
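Each compound was tested at five concentrations against cells in 96-well plates for 48 hours. Abbreviation: GI50, concentration required for 50% inhibition of growth.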 Activity calls are given as the source filed them. Cut-off read from the data, not from the text of the source: active = GI50 up to about 1.1 µM and inactive = higher.

Key:
Assay in all cases: growth of human tumour cells (NCI), 48 h
[1] = test system: 786-0
[2] = test system: A498
[3] = test system: A549
[4] = test system: ACHN
[5] = test system: CAKI-1
[6] = test system: CCRF-CEM
[7] = test system: COLO 205
[8] = test system: DLD-1
[9] = test system: DMS-114
[10] = test system: DMS-273
[11] = test system: EKVX
[12] = test system: HCC 2998
[13] = test system: HCT-116
[14] = test system: HCT-15
[15] = test system: HL-60
[16] = test system: HOP-18
[17] = test system: HOP-62
[18] = test system: HOP-92
[19] = test system: HT-29
[20] = test system: IGROV-1
[21] = test system: K562
[22] = test system: KM-20L2
[23] = test system: KM12
[24] = test system: LOX IMVI
[25] = test system: LXFL 529
[26] = test system: MOLT-4
[27] = test system: Malme-3M
[28] = test system: NCI-H226
[29] = test system: NCI-H23
[30] = test system: NCI-H460
[31] = test system: NCI-H522
[32] = test system: OVCAR-3
[33] = test system: OVCAR-4
[34] = test system: OVCAR-5
[35] = test system: OVCAR-8
[36] = test system: RPMI-8226
[37] = test system: SF-268
[38] = test system: SF-295
[39] = test system: SF-539
[40] = test system: SK-MEL-28
[41] = test system: SK-MEL-2
[42] = test system: SK-MEL-5
[43] = test system: SK-OV-3
[44] = test system: SN12C
[45] = test system: SNB-19
[46] = test system: SNB-75
[47] = test system: SNB-78
[48] = test system: SR
[49] = test system: SW-620
[50] = test system: TK-10
[51] = test system: U-251
[52] = test system: UACC-257
[53] = test system: UACC-62
[54] = test system: UO-31
[55] = test system: M19-MEL
[56] = test system: MCF7
[57] = test system: NCI/ADR-RES
[58] = test system: RXF 393
[59] = test system: M14

## CC(C)CC(NC(=O)c1cccc(O)c1O)C(=O)NCc1cc(CNC(=O)C(CC(C)C)NC(=O)c2cccc(O)c2O)cc(CNC(=O)C(CC(C)C)NC(=O)c2cccc(O)c2O)c1 (stereo not drawn)
[1]
  GI50: 42 µM (inactive)
[2]
  GI50: 24.8 µM (inactive)
[3]
  GI50: 18.6 µM (inactive)
[4]
  GI50: 22.2 µM (inactive)
[5]
  GI50: 46.3 µM (inactive)
[6]
  GI50: 4.91 µM (inactive)
[7]
  GI50: 16.6 µM (inactive)
[8]
  GI50: 20.9 µM (inactive)
[9]
  GI50: 5.13 µM (inactive)
[10]
  GI50: 15.6 µM (inactive)
[11]
  GI50: 12.6 µM (inactive)
[12]
  GI50: 7.8 µM (inactive)
[13]
  GI50: 15.9 µM (inactive)
[14]
  GI50: 23.1 µM
[15]
  GI50: 4.34 µM (inactive)
[16]
  GI50: 24 µM (inactive)
[17]
  GI50: 15 µM (inactive)
[18]
  GI50: 14.6 µM (inactive)
[19]
  GI50: 13.3 µM (inactive)
[20]
  GI50: 5.66 µM (inactive)
[21]
  GI50: 18.9 µM (inactive)
[22]
  GI50: 7.11 µM (inactive)
[23]
  GI50: 13.8 µM (inactive)
[24]
  GI50: 8.63 µM (inactive)
[25]
  GI50: 2.82 µM (inactive)
[26]
  GI50: 11.4 µM (inactive)
[27]
  GI50: 19.6 µM (inactive)
[28]
  GI50: 14.7 µM (inactive)
[29]
  GI50: 15.6 µM (inactive)
[30]
  GI50: 14 µM (inactive)
[31]
  GI50: 3.92 µM (inactive)
[32]
  GI50: 4.33 µM (inactive)
[33]
  GI50: 13.9 µM (inactive)
[34]
  GI50: 10.8 µM (inactive)
[35]
  GI50: 40.6 µM (inactive)
[36]
  GI50: 4.14 µM (inactive)
[37]
  GI50: 8.13 µM (inactive)
[38]
  GI50: 15.5 µM (inactive)
[39]
  GI50: 5.47 µM (inactive)
[40]
  GI50: 13.7 µM (inactive)
[41]
  GI50: 7.05 µM (inactive)
[42]
  GI50: 12.8 µM (inactive)
[43]
  GI50: 9.44 µM (inactive)
[44]
  GI50: 12.8 µM (inactive)
[45]
  GI50: 13.6 µM (inactive)
[46]
  GI50: 20.6 µM (inactive)
[47]
  GI50: 29.1 µM (inactive)
[48]
  GI50: 8.36 µM (inactive)
[49]
  GI50: 17.2 µM (inactive)
[50]
  GI50: 16.2 µM (inactive)
[51]
  GI50: 11.1 µM (inactive)
[52]
  GI50: 20.1 µM (inactive)
[53]
  GI50: 4.49 µM (inactive)
[54]
  GI50: 12.3 µM (inactive)

## Cc1c2cnccc2c(C)c2c1c1ccccc1n2CC1CO1 (stereo not drawn)
[2]
  GI50: 0.247 µM (active)
[3]
  GI50: 1.51 µM (inactive)
[5]
  GI50: 1.34 µM (inactive)
[6]
  GI50: 0.0389 µM (active)
[7]
  GI50: 1.16 µM (inactive)
[8]
  GI50: 1.55 µM (inactive)
[9]
  GI50: 0.82 µM (active)
[10]
  GI50: 0.638 µM (active)
[11]
  GI50: 0.687 µM (active)
[12]
  GI50: 1.18 µM (inactive)
[13]
  GI50: 0.327 µM (active)
[14]
  GI50: 1.54 µM
[15]
  GI50: 0.0283 µM (active)
[16]
  GI50: 1.86 µM (inactive)
[17]
  GI50: 1.64 µM (inactive)
[18]
  GI50: 1.81 µM (inactive)
[19]
  GI50: 1.72 µM (inactive)
[20]
  GI50: 1.48 µM (inactive)
[21]
  GI50: 0.859 µM (active)
[22]
  GI50: 1.3 µM (inactive)
[23]
  GI50: 1.58 µM (inactive)
[24]
  GI50: 0.393 µM (active)
[55]
  GI50: 1.31 µM (inactive)
[56]
  GI50: 0.0422 µM (active)
[26]
  GI50: 0.0213 µM (active)
[27]
  GI50: 1.75 µM (inactive)
[28]
  GI50: 1.76 µM (inactive)
[29]
  GI50: 0.422 µM (active)
[30]
  GI50: 0.454 µM (active)
[31]
  GI50: 1.07 µM (active)
[57]
  GI50: 0.826 µM (active)
[32]
  GI50: 1.57 µM (inactive)
[33]
  GI50: 1.99 µM (inactive)
[34]
  GI50: 2.05 µM (inactive)
[35]
  GI50: 0.443 µM (active)
[36]
  GI50: 0.883 µM (active)
[58]
  GI50: 0.427 µM (active)
[37]
  GI50: 0.323 µM (active)
[38]
  GI50: 1.33 µM (inactive)
[39]
  GI50: 1.21 µM (inactive)
[40]
  GI50: 1.71 µM (inactive)
[41]
  GI50: 1.66 µM (inactive)
[42]
  GI50: 1.1 µM (active)
[43]
  GI50: 2.53 µM (inactive)
[44]
  GI50: 0.174 µM (active)
[45]
  GI50: 2.04 µM (inactive)
[46]
  GI50: 0.652 µM (active)
[47]
  GI50: 1.83 µM (inactive)
[49]
  GI50: 0.345 µM (active)
[51]
  GI50: 1.6 µM (inactive)
[52]
  GI50: 1.75 µM (inactive)
[53]
  GI50: 1.63 µM (inactive)
[54]
  GI50: 1.42 µM (inactive)

## COc1ccc(S(=O)(=O)N(CC(=O)O)c2ccccc2)cc1
[1]
  GI50: > 100 µM (inactive)
[2]
  GI50: > 100 µM (inactive)
[3]
  GI50: > 100 µM (inactive)
[4]
  GI50: > 100 µM (inactive)
[5]
  GI50: > 100 µM (inactive)
[6]
  GI50: > 100 µM (inactive)
[7]
  GI50: > 100 µM (inactive)
[8]
  GI50: > 100 µM (inactive)
[10]
  GI50: > 100 µM (inactive)
[11]
  GI50: > 100 µM (inactive)
[12]
  GI50: > 100 µM (inactive)
[14]
  GI50: > 100 µM
[15]
  GI50: > 100 µM (inactive)
[16]
  GI50: > 100 µM (inactive)
[18]
  GI50: > 100 µM (inactive)
[19]
  GI50: > 100 µM (inactive)
[20]
  GI50: > 100 µM (inactive)
[21]
  GI50: > 100 µM (inactive)
[22]
  GI50: > 100 µM (inactive)
[23]
  GI50: > 100 µM (inactive)
[24]
  GI50: > 100 µM (inactive)
[25]
  GI50: > 100 µM (inactive)
[59]
  GI50: > 100 µM (inactive)
[55]
  GI50: > 100 µM (inactive)
[26]
  GI50: > 100 µM (inactive)
[27]
  GI50: > 100 µM (inactive)
[29]
  GI50: > 100 µM (inactive)
[30]
  GI50: > 100 µM (inactive)
[31]
  GI50: > 100 µM (inactive)
[32]
  GI50: > 100 µM (inactive)
[33]
  GI50: > 100 µM (inactive)
[34]
  GI50: > 100 µM (inactive)
[35]
  GI50: > 100 µM (inactive)
[36]
  GI50: > 100 µM (inactive)
[58]
  GI50: > 100 µM (inactive)
[37]
  GI50: > 100 µM (inactive)
[38]
  GI50: > 100 µM (inactive)
[39]
  GI50: > 100 µM (inactive)
[40]
  GI50: > 100 µM (inactive)
[41]
  GI50: > 100 µM (inactive)
[42]
  GI50: > 100 µM (inactive)
[43]
  GI50: > 100 µM (inactive)
[44]
  GI50: > 100 µM (inactive)
[45]
  GI50: > 100 µM (inactive)
[46]
  GI50: 67.3 µM (inactive)
[49]
  GI50: > 100 µM (inactive)
[50]
  GI50: > 100 µM (inactive)
[51]
  GI50: > 100 µM (inactive)
[52]
  GI50: > 100 µM (inactive)
[53]
  GI50: > 100 µM (inactive)
[54]
  GI50: > 100 µM (inactive)
